Measured values as given in patent publication US8586051B2, “Glycolipids and analogues thereof as antigens for NKT cells” (The Rockefeller University, priority 2004, dated 2013).

Legend:
[1] = system: Vα24i human NKT cell line; assay: In vitro cytokine secretion assay using human NKT cell lines with CD14+ dendritic cells; type: cell-based
Method: (§1) Human NKT cell lines, expressing the Vα24i T cell receptor as well as CD161, were generated as follows: Anti-CD161 monoclonal antibodies, and anti-CD14 monoclonal antibodies, each coupled to magnetic beads (Miltenyi biotec, Auburn, Calif.), were used sequentially to isolate CD161^+ cells and CD14^+ cells from leukopaks. Immature dendritic cells were generated from the CD14^+ cells after a two-day incubation in the presence of 300 U/ml GM-CSF (R&D systems, Minneapolis, Minn.) and 100 U/ml IL-4 (R&D systems, Minneapolis, Minn.). Following irradiation with 2000 rads, the immature dendritic cells were co-cultured with syngeneic CD161′ cells in the presence of 100 ng/ml of alpha-galactosylceramide and 10 IU/ml of IL-2 (Invitrogen, Carlsbad Calif.) for 10 to 14 days. After stimulating the CD161^+ cells a second time with alpha-galactosylceramide-pulsed, irradiated immature dendritic cells, NKT cell lines were shown by flow cytometry to express both CD161^+ and V 24i TCR (99% purity).
IFN-γ and IL-4 secretion by the Vα 24i human NKT cell line was determined by ELISA (BD Pharmingen, San Diego, Calif.) after culture for 16 hours. […]
as §1, with “of 100-0.1” for “of 100”
IFN-γ secretion by the Vα 24i human NKT cell line was determined by ELISA (BD Pharmingen, San Diego, Calif.) after culture for 16 hours. […]

[2] = system: CD1d reactive T cell hybridomas with an invariant Vα14i T cell antigen receptor α chain; assay: 1.2 Hybridoma assay (IL-2 release by ELISA); type: cell-based, Mouse; details: for IL-2 secretion: CD1d coated plates, FIG. 8b; for IL-2 release / IL-2 production: various concentrations, FIG. 13
Method: As a measure of T cell activation, IL-2 release into the tissue culture medium was measured after 16 hours culture by an ELISA assay.
As a measure of T cell activation, IL-2 and IFN-γ release into the tissue culture medium was measured after 16 hours culture by an ELISA assay.

CCCCCCCCCCCCCCC[C@@H](O)[C@H](COC1OC(C(=O)O)C(O)C(O)C1O)NC(=O)CCCCCCCCCCCCC (some centres unmarked) [Compound 5]
reactivity of human Vα24i NKT cells [1]: conserved

CCCCCCCCCCCCCCC[C@@H](O)[C@H](COC1OC(CO)C(O)C(O)C1O)NC(=O)CCCCCCCCCCCCC (some centres unmarked) [Compound 7]
IL-2 secretion [2]: greater IL-2 secretion when compared to the galacturonic acid derivatives

CCCCCCCCCCCCCCC[C@@H](O)[C@H](COC1OC(CO)C(O)C(O)C1O)NC(=O)[C@@H](O)CCCCCCCCCCCC (some centres unmarked) [Compound 8]
IL-2 secretion [2]: less able to activate IL-2 secretion when compared with 5

CCCCCCCCCCCCCCCCCCCCCCCCCC(=O)N[C@@H](CO[C@H]1O[C@H](CO)[C@H](O)[C@H](O)[C@H]1O)[C@H](O)[C@H](O)CCCCCCCCCCCCCC [α-GalCer, α-Galactosylceramide, reference compound]
IL-4 secretion ([1]; 10 μg/ml glycolipid (1-10 μg/ml for 3-O-sulfo-α-galactosylceramide), 10 IU/ml IL-2): greater IFN-γ and IL-4 secretion
IFN-γ secretion ([1]; 10 μg/ml glycolipid (1-10 μg/ml for 3-O-sulfo-α-galactosylceramide), 10 IU/ml IL-2, FIG. 9a): greater IFN-γ and IL-4 secretion
IL-2 release from the hybridomas ([2]; 1 μg/ml, CD1d transfected A20 cells, FIG. 12): greatest amount of IL-2 release
IL-2 secretion [2]: greater IL-2 secretion when compared to the galacturonic acid derivatives

CCCCCCCCCCCCCCC[C@@H](O)[C@H](COC1OC(C(=O)O)C(O)C(O)C1O)NC(=O)[C@@H](O)CCCCCCCCCCCC (some centres unmarked) [Compound 6]
reactivity of human Vα24i NKT cells [1]: conserved

CCCCCCCCCCCCCC[C@@H](O)[C@@H](O)[C@H](COC1OC(CO)C(O)C(O)C1O)NC(=O)CCCCCc1ccccc1 (some centres unmarked) [Compound 83]
IL-2 release / IL-2 production ([2]; CD1d transfected A20 cells): significant increase of IL-2 production

CCCCCCCCCCCCCC[C@@H](O)[C@@H](O)[C@H](COC1OC(CO)C(O)C(O)C1O)NC(=O)CCCCCCCc1ccccc1 (some centres unmarked) [Compound 84]
interferon-γ secretion ([1]; 100-0.1 ng/mL, FIGS. 17 and 18): consistently stimulating greater IFN-γ secretion
IL-2 release / IL-2 production ([2]; CD1d transfected A20 cells): significant increase of IL-2 production
